Measured values: patent publication US20110212108A1, “NEUREGULIN/ERBB SIGNALING AND INTEGRIN” (THE REGENTS OF THE UNIVERSITY OF CALIFORNIA, priority 2008, published 2011)
Positions count from the first letter of the chain named. Entries after “also recorded” stand apart in the source; their conditions may differ.

B1: WT NRG1α (175-241): wild type human neuregulin 1 fragment, residues 175-241 of SEQ ID NO:4 (SEQ ID NO:5), entire EGF-like motif and α domain (protein)
chain: GTSHLVKCAEKEKTFCVNGGECFMVKDLSNPSRYLCKCQPGFTGARCTENVPMKVQNQEKAEELYQK
modifications: integrin-binding site within human neuregulin, residues 175-241of human neuregulin 1alpha, long version
B2: 3KE (175-241): NRG1α (175-241) with Lys181/Lys185/Lys187 mutated to Glu, SEQ ID NO:6 (3KE, long version) (protein)
chain: B1 chain with K7E, K11E, K13E
modifications: integrin-binding site within human neuregulin, residues 175-241of human neuregulin 1alpha, long version, 3KE mutant

Key:
[1] = target: T1, CHO cells that express human α6β4 (Homo sapiens, UniProt P16144+P23229); assay: Cell adhesion assay, α6β4-CHO cells; type: cell-based; conditions: DMEM, 1 h at 37° C.
T1 construct: expressed in transfected cells; host or cells: CHO
T1 sequence (P23229 24-1130): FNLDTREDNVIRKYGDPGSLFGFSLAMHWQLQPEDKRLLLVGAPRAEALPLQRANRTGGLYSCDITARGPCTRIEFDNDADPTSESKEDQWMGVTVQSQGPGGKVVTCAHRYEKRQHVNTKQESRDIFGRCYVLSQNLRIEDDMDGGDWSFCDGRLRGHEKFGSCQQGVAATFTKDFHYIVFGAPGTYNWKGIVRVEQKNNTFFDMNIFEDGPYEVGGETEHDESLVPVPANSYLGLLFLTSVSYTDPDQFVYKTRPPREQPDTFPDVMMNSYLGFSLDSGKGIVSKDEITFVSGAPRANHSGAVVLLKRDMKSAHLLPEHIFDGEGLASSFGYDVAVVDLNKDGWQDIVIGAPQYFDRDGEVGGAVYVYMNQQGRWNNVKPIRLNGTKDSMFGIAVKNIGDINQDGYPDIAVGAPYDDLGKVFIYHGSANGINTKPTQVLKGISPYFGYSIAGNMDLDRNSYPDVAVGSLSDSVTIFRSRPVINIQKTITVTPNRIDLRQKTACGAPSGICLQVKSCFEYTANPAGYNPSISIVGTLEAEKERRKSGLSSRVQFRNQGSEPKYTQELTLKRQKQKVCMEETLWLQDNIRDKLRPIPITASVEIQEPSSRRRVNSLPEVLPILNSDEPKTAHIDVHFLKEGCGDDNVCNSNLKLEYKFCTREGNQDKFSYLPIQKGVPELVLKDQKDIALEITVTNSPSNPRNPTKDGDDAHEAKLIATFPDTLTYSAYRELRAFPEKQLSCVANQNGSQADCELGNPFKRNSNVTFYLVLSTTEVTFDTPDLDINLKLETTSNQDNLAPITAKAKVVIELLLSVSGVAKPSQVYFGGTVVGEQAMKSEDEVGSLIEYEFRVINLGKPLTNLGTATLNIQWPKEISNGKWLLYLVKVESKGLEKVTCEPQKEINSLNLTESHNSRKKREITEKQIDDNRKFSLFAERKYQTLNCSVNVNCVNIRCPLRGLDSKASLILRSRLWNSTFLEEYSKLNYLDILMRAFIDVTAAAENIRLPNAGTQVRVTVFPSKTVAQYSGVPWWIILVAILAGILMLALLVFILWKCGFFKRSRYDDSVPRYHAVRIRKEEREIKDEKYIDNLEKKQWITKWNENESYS
T1 sequence (P16144 28-1822): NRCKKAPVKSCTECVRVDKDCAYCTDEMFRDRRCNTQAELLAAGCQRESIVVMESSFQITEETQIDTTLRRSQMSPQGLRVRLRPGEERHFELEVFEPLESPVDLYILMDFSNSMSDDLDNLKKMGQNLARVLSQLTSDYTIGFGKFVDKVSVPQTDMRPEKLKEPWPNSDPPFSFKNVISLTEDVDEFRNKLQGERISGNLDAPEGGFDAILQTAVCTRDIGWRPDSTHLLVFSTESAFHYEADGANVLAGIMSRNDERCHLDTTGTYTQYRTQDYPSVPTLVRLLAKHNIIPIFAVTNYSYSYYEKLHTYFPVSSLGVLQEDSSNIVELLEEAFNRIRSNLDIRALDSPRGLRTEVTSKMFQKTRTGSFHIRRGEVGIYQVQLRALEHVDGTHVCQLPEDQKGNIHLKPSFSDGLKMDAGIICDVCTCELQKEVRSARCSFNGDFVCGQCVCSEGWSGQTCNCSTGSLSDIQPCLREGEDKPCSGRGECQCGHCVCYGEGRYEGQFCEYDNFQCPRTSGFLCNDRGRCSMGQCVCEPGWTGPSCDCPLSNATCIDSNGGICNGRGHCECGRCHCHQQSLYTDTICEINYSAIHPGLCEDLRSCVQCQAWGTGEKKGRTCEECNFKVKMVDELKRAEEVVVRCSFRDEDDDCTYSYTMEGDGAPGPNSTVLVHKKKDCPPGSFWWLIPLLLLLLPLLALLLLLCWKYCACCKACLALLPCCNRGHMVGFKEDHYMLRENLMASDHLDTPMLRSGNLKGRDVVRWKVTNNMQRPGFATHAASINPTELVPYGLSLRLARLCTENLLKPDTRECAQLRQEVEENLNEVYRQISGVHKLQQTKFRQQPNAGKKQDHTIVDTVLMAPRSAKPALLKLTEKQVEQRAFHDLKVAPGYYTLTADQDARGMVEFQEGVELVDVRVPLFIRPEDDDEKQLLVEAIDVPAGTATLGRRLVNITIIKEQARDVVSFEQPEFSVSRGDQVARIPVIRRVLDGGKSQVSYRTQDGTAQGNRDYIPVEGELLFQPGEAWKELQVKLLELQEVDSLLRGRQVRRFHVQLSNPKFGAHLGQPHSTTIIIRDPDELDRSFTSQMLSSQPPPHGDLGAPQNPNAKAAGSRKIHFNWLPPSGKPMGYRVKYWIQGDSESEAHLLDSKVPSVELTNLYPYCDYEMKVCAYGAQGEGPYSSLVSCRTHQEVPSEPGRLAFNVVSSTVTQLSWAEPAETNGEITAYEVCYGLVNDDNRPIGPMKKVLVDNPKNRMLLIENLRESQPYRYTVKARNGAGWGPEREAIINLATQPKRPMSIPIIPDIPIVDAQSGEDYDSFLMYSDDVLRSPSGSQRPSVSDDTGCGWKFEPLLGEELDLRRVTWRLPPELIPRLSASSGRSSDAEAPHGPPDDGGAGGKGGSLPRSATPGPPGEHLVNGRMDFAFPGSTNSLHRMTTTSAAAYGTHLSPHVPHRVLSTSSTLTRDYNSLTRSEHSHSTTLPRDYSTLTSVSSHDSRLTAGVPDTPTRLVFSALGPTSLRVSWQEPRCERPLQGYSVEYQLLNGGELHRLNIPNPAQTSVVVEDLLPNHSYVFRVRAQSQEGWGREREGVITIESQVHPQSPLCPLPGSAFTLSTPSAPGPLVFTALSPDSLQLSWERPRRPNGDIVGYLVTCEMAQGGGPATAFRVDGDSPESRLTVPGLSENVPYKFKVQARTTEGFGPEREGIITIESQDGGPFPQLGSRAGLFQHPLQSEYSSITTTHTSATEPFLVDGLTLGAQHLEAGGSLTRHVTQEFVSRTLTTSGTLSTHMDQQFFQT
Experimental: FIG. 17. CHO cells that express human α6β4 adhered to wt NRG1 (175-222) but not to the 3KE (175-222) mutant. Wells of 96-well microtiter plate were coated with wt or 3KE mutant NRG1 (175-222) and incubated with α6β4-CHO or β1-CHO cells in DMEM for 1 h at 37° C. as described herein. Bound cells were quantified.

M21 human melanoma cells = assay: Western blotting of signaling in M21 cells; type: cell-based; conditions: 10 ng/ml; for ERK1/2 activation in M21 cells / ErbB3 phosphorylation in M21 cells: 15 min
Experimental: FIG. 9. Effect of the 3KE (175-222) mutation on ErbB3 phosphorylation, ERK1/2 activation, and cyclin D1 levels in M21 human melanoma cells. Cells were cultured in DMEM+1% FBS medium for 24 h, and then treated with 3KE or WT NRG1 (175-222) (10 ng/ml, if concentrations were not indicated) for 15 min (if time is not specified). Cell lysates were analyzed by Western blotting.
(§1) Cell proliferation: cells were starved by culturing DMEM with low-level FCS (e.g., 0.4%) overnight and then treated with the wt or mutant NRG1 (175-222) (up to 100 ng/ml). The cells were harvested in 15 min to 6 h after stimulation and cell lysates analyzed by western blotting with antibodies specific to signaling molecules. Alternatively, cells were cultured for 24-48 h after stimulation for testing proliferation or cell viability by MTS assays. Statistical analysis and calculation of kinetic constants were performed using Prism software (Graphpad).
(§2) Signaling: The levels of cell proliferation were measured by MTS assays and the kinetic data were analyzed by using Prism software (Graphpad). Melanoma cells were cultured in the presence of wt or mutant NRG1 (175-222), and the levels of ErbB2 and B3 phosphorylation, MAP kinase activation, or activation of other signaling molecules in the cell lysates were monitored by immunoprecipitating ErbB2 and B3 from the lysates and detecting tyrosine phosphorylation by western blotting with anti-phosphotyrosine antibodies (the IP-Western method) for ErbB2 and B3. Alternatively, anti-phospho ErbB2 or B3 antibodies (commercially available) and anti-phospho ERK1/2 antibodies were used.

B16F10 melanoma cells = assay: Western blotting of signaling in B16F10 cells; type: cell-based, mouse; conditions: 10 ng/ml
Experimental: FIG. 11. […] Cells were serum starved and stimulated with 10 ng/ml wt or mutant NRG1 (175-222). Cell lysates were analyzed by western blotting.
as §1, §2

[2] = test system: estrogen-dependent and independent breast cancer cell lines; assay: Growth of breast cancer cell lines; type: cell-based; conditions: several estrogen-dependent and independent lines
[3] = target: T2, CHO cells that express human β3 (β3-CHO) (Homo sapiens, UniProt P05106); assay: Cell adhesion assay, β3-CHO cells; type: cell-based
T2 construct: expressed in transfected cells; host or cells: CHO
T2 sequence (P05106 27-788): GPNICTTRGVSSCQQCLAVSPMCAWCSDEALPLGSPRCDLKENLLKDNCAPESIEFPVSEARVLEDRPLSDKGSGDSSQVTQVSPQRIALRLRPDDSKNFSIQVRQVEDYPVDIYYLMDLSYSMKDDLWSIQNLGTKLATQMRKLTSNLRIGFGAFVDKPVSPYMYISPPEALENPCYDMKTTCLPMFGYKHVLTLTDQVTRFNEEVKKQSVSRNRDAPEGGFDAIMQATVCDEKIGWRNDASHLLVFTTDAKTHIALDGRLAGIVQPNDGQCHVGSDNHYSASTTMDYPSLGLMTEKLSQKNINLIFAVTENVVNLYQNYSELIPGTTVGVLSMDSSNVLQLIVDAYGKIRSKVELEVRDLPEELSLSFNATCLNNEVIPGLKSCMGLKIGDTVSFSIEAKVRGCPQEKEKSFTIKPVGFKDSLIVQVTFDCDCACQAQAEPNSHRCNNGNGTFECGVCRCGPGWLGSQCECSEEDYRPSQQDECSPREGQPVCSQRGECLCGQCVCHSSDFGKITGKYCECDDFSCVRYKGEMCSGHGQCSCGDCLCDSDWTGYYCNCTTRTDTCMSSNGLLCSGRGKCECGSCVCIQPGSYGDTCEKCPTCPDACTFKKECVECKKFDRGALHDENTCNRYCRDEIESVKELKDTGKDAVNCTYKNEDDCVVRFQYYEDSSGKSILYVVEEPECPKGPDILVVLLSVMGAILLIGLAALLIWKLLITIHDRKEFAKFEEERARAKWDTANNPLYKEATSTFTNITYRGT
Experimental: CHO or K562 cells expressing different recombinant integrins were previously known and available (Zhang et al. 1998; Tarui et al. 2006). Labeling of proteins with FITC or […] was performed according to manufacturers' instructions. Flow cytometry was performed as described above.
Cell adhesion and soluble integrin binding assays were performed as described previously (Mori, et al., 2008). NRG1α (175-241) was immobilized to wells of 96-well microtiter plate overnight at 4° C. in 0.1 M carbonate buffer, pH 2 9.4. Remaining protein binding sites were blocked by incubating with 200 μl of 0.1% BSA in PBS for 60 min at room temperature. Wells were then incubated with soluble integrin αvβ3 in 50 μl in Hepes-Tyrode's buffer supplemented with 1 mM Mn2+ at room temperature for 60 min. After rinsing the wells with the same buffer, bound integrins were determined by horseradish peroxidase (HRP)-conjugated anti-His tag mouse IgG and substrate 3,3′,5,5′-tetramethylbenzidine of HRP.

[4] = target: T3, Recombinant human ErbB3 Fc chimera (Homo sapiens, UniProt P21860); assay: ELISA-type binding to immobilized recombinant soluble ErbB3; conditions: ErbB3 Fc coated at 1 μg/ml, 1 h room temperature
T3 construct: Recombinant soluble ErbB3 Fc fusion protein was coated onto well of 96-well microtiter plate; purchased R&D Systems
T3 sequence (P21860 20-643 limits assumed, change not shown): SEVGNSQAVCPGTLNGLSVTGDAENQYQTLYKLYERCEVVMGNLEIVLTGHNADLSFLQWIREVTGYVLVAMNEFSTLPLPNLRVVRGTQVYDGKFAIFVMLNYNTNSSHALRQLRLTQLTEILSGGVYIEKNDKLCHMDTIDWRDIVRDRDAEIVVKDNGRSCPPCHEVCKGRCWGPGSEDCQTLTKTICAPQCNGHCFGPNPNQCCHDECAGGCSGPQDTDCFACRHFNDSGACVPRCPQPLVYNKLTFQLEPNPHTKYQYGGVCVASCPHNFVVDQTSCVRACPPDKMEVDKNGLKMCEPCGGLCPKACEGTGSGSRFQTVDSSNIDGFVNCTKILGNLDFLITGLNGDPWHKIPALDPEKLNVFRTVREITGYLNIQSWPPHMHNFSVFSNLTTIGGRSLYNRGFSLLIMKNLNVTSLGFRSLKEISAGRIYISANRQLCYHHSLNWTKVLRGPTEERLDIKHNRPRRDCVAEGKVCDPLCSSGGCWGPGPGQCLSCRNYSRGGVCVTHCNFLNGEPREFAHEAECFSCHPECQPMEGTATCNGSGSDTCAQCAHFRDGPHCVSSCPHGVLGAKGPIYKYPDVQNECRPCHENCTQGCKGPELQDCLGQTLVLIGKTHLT
Experimental: FIG. 20. The 3KE mutant of NRG1α (175-241) binds to ErbB3. a). Binding of the 3KE mutant of NRG1α (175-241) to recombinant ErbB3. Recombinant soluble ErbB3 Fc fusion protein (R&D system) was coated onto wells of 96-well microtiter plate (1 μg/ml). NRG1α (175-241) WT or 3KE (175-241) mutant was added to the wells and incubated for 1 h at room temperature. GST was used as a control. After washing the wells, bound GST NRG1α (175-241) was determined by using anti-GST antibody HRP conjugate. […] Competitive binding assay. Recombinant soluble ErbB3 Fc fusion protein was coated onto well of 96-well microtiter plate (1 μg/ml). Binding of biotin labeled NRG1α (175-241) WT (20 nM) in the presence of increasing concentrations of NRG1α (175-241) WT, 3KE (175-241) or GST. After washing the wells, bound biotin labeled NRG1α (175-241) WT was determined by using streptavidin HRP conjugate.

Row | Molecule | Adhesion of α6β4-CHO cells to the immobilized protein [1] | cyclin D1 levels in M21 cells (M21 human melanoma cells) | ERK1/2 activation in M21 cells (M21 human melanoma cells) | ErbB3 phosphorylation in M21 cells (M21 human melanoma cells) | D1 cyclin levels in B16F10 cells (B16F10 melanoma cells) | ERK1/2 activation in B16F10 cells (B16F10 melanoma cells) | Growth of breast cancer cells [2] | ERK1/2 activation in M21 cells (M21 human melanoma cells; listed as Wt NRG1 (175-222)) | AKT activation in B16F10 cells (B16F10 melanoma cells) | Adhesion of β3-CHO cells to the immobilized protein [3] | Binding to immobilized soluble ErbB3 (ELISA-type assay) [4] | Binding to immobilized soluble ErbB3 (ELISA-type assay) ([4]; listed as 3KE mutant NRG1α (175-241)) | Binding to immobilized soluble ErbB3 (ELISA-type assay) ([4]; listed as 3KE mutant of NRG1α (175-241))
1 | 3KE (175-222): NRG1 (175-222) with Lys181/Lys185/Lys187 mutated to Glu; GTSHLVECAEEEETFCVNGGECFMVKDLSNPSRYLCKCQPGFTGARCT (SEQ ID NO:11) (integrin-binding site within human neuregulin, 3KE mutant, short version) | did not adhere | suppressed | did not induce the level of ERK1/2 activation; also recorded: suppressed ERK1/2 activation | did not induced ErbB3 phosphorylation | suppressed D1 cyclin levels very rapidly | did not induce them | did not |  |  |  |  |  | 
2 | wt NRG1 (175-222): wild type human neuregulin 1 fragment, EGF-like domain, residues 175-222 of SEQ ID NO:4 (SEQ ID NO:3) (GTSHLVKCAEKEKTFCVNGGECFMVKDLSNPSRYLCKCQPGFTGARCT; integrin-binding site within human neuregulin 1 EGF-like region and portion of alpha domain, residues 175-222 of human neuregulin 1 alpha) [reference compound] | adhere |  | enhanced the level of ERK1/2 activation | induced ErbB3 phosphorylation |  | induced | enhanced the growth of breast cancer cells | induced | induced | adhered to NRG1 (175-222) |  |  | 
3 | B1 |  |  |  |  |  |  |  |  |  | adhered to NRG1α (175-241) | bound to immobilized soluble ErbB3 comparably |  | 
4 | B2 |  |  |  |  |  |  |  |  |  |  |  | bound to immobilized soluble ErbB3 comparably | binds to ErbB3 at levels nearly comparable to WT NRG1α (175-241)
